Data as given in patent publication US6380230B1, “Carboxamidothiazole derivatives, preparation, pharmaceutical compositions containing them” (Sanofi-Synthelabo, priority 1997, dated 2002).

How the values were obtained:
[1] = target: T1, human CCK-B receptor (Homo sapiens, UniProt P32239); test: in vitro binding to the human CCK-B receptor; settings: read-out: affinity for the human CCK-B receptor (IC50)
T1 sequence (P32239 1-447): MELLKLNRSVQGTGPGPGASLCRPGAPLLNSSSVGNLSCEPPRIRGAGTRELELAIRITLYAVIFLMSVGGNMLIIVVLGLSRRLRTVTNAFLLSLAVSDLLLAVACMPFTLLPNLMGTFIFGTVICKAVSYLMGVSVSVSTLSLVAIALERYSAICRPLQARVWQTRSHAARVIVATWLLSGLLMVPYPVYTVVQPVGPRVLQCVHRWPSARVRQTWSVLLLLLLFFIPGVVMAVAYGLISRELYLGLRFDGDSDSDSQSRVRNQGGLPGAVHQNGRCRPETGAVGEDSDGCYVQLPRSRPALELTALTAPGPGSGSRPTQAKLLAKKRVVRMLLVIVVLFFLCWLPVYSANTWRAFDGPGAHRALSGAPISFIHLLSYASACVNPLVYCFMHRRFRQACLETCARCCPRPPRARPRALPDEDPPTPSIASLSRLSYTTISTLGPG

[2] = tested on: Female Swiss albino CD1 mice; test: gastric drainage (charcoal meal) in mice, intraperitoneal administration; type: in vivo; settings: intraperitoneally
Procedure: The compounds of the present invention were also studied in vivo, by evaluating their capacity to block gastric drainage in mice.
A study of the agonist effect of the compounds on gastric drainage was carried out as follows. Female Swiss albino CD1 mice (20-25 g) are placed on a solid fast for 18 hours. On the day of the experiment, the products (as a suspension in 1% carboxymethyl cellulose solution or in 0.6% methylcellulose solution) or the corresponding vehicle are administered intraperitoneally, 30 minutes before administering a charcoal meal (0.3 ml per mouse of a suspension in water of 10% charcoal powder, 5% gum arabic and 1% carboxymethyl cellulose or 0.6% methyl cellulose). The mice are sacrificed five minutes later by cervical dislocation, and gastric drainage is defined as the presence of charcoal in the intestine beyond the pyloric sphincter (Eur. J. Pharmacol., 1993, 232, 13-19).

[3] = target: T2, human CCK-A receptor (Homo sapiens, UniProt P32238); test: mobilization of intracellular calcium ([Ca++]i, Fura-2) in 3T3 cells expressing the human CCK-A receptor; type: cell-based
T2 construct: expressed in transfected cells; host or cells: 3T3 cells
T2 sequence (P32238 1-428): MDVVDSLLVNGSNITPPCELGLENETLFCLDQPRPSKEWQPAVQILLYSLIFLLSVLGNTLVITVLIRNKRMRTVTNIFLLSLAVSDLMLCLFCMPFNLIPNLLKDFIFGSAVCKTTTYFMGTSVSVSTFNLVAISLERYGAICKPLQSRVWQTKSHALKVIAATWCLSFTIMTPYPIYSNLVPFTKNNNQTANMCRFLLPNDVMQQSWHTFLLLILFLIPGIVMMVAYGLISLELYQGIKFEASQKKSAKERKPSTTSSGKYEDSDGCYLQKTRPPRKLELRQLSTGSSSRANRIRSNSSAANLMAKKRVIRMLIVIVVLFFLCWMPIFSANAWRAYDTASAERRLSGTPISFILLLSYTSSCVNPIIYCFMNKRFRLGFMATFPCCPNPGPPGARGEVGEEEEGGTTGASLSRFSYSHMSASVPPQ
Procedure: The calcium concentration [Ca^++]i is evaluated with Fura-2 as fluorescent probe, by the double excitation wavelength method. The ratio of the fluorescence emitted at two wavelengths gives the concentration of [Ca^++]i after calibration (Grynkiewicz G. et al., J. Biol. Chem., 1985, 260, 3440-3450).

[4] = target: T2, human CCK-A receptor; test: displacement of [125I]-CCK from 3T3 cells expressing the human CCK-A recombinant receptor; type: binding; settings: read-out: affinity for the human CCK-A receptor (IC50)

## COc1cc(-c2nc(NC(=O)c3cc4cc(C)cc(C)c4n3CC(=O)O)sc2CCC2CCCCC2)c(OC)cc1Cl.O=C(O)C(F)(F)F [Example 5, 2-(4-(4-Chloro-2,5-dimethoxyphenyl)-5-(2-cyclohexylethyl)-2-thiazolylcarbamoyl)-5,7-dimethyl-1-indoleacetic acid trifluoroacetic acid.]
[1]
  IC50: 162 nM
[2]
  ED50 on gastric drainage: 1.9 µg/kg
  effect on gastric drainage: completely inhibits gastric drainage
[3]; increase to the same level as CCK itself
  agonist behaviour on intracellular calcium relative to CCK: total agonist
[3]; read-out: EC50 (effective concentration which induces 50% of the effect of CCK) for increase in intracellular calcium concentration, 3T3 cells expressing human CCK-A receptor
  EC50: 1.27 nM
[4]
  IC50: 0.56 nM
